Consider seven molecules from patent US8377886B2, “Use of gamma secretase inhibitors and notch pathway inhibitors for treatment and prevention of renal disease” (Albert Einstein College of Medicine of Yeshiva University, priority 2007, dated 2013).

Assay [1] deals with ICN1. The assay can be described thus: TGFβ induced increase of ICN1 levels in cultured podocytes, Western blot. To be noted: 5 ng/ml TGFβ; 100 nM GSI XX; 10 μM SB203580, PD or LY; GSI IX and GSI X data not shown. It is filed as cell-based, mouse. As to the method:
(§1) Infection of Podocytes. Cultivation of conditionally immortalized mouse podocytes was performed as described^41. Briefly, cells were propagated in the undifferentiated state on type1 collagen at 33° C. in RPMI 1640 in the presence of 10% FBS (Hyclone) and 20 U/ml interferon γ (Sigma Chemical Co., St Louis, Mo.). To induce differentiation, cells were maintained at 37° C. without interferon for 10 days. Podocytes were infected with MIGR-ICN1-EGFP (kind gift of Dr Warren Pear, University of Pennsylvania) or pBMN-EGFP (Orbigen) retrovirus. Briefly vectors were transfected into Phoenix Eco packaging cells (Orbigen) and supernatant was harvested 60-72 hrs after transfection. Podocytes were infected with virus containing supernatant (3-4 times, every 6 hours) in the presence of polybrene […]. After 24 hrs of infection, the medium was changed and cells were either treated with tamoxifen to induce ICN1 expression or left untreated. Infection efficiency was estimated under fluorescence microscope by the presence of GFP positive cells as it ranged from 70-80%.
Western Blotting. Cells were lysed in RIPA buffer in the presence of protease and phosphatase inhibitors; equal amount (30 μg) of protein was loaded on 10% SDS gels. Gels were transferred to PVDF membranes (Bio-Rad), blocked in 5% milk and incubated with the primary antibody (1:1,000 dilution) overnight at 4° C. in 1% milk. Membranes were incubated with HRP conjugated anti-mouse or anti-rabbit secondary antibody (Jackson Immunologicals) for 1 hr at room temperature and developed using ECL method (Pierce). The following primary antibodies were used in this study; phospho-p38 (#4631), total p38 (#9217), phospho-AKT (#4051), total AKT (#9272), cleaved PARP, cleaved caspase3, phospho-53 were from Cell Signaling, phospho-JNK, p53, p21 were from Santa Cruz Val^1744ICN1 and β-actin antibody was purchased from Abcam (Cambridge, Mass.).

In assay [2] the test system is p21. The assay can be described thus: TGFβ induced p21 protein expression in podocytes, Western blot. To be noted: after 24 hrs TGFβ. It is filed as cell-based, mouse. As to the method:
as §1
(§2) Western Blotting. Cells were lysed in RIPA buffer in the presence of protease and phosphatase inhibitors; equal amount (30 μg) of protein was loaded on 10% SDS gels. Gels were transferred to PVDF membranes (Bio-Rad), blocked in 5% milk and incubated with the primary antibody (1:1,000 dilution) overnight at 4° C. in 1% milk. […]

Assay [3] concerns podocytes. As to the kind of experiment: TGFβ induced podocyte apoptosis, annexinV positive cell number. The assay is classed as cell-based, mouse. To be noted: 24 hrs following TGFβ; pre-incubation GSIXX 1 μM or pifithrinα 15 μM. How it is done: as §1
AnnexinV staining. AnnexinV staining was performed using AnnexinV-Alexa 568 staining kit (Roche). […] Cells were washed, and fluorescent labeled cells were counted. Total number of cells were counted by DAPI counterstain. Nuclear condensation was assessed by DAPI staining.

In assay [4] the test system is podocytes. The assay can be described thus: ICN1 induced podocyte apoptosis, AnnexinV staining. The assay is classed as cell-based, mouse. To be noted: for ICN1 induced increase in annexinV positive cell number: tamoxifen 1.5 μM, counted 24 hrs after induction, GSIXX 4 μM, pifithrin-alpha 15 μM. As to the method: as §1
AnnexinV staining. AnnexinV staining was performed using AnnexinV-Alexa 568 staining kit (Roche). Cells were cultured in 24 well plates, washed and incubated with AnnexinV-Alexa 568 in incubation buffer according to manufacturer's instruction. Cells were washed, and fluorescent labeled cells were counted. Total number of cells were counted by DAPI counterstain. Nuclear condensation was assessed by DAPI staining.

In assay [5] the test system is unilateral ureteral obstruction model. The assay can be described thus: Unilateral ureteral obstruction model of renal tubulointerstitial fibrosis. The assay is classed as in vivo, mouse. To be noted: animals injected with GSI XX (DBZ). As to the method:
Increased Notch pathway gene expression was also observed in mouse models of chronic tubulointerstitial fibrosis (unilateral ureteral obstruction) and in patients with chronic renal disease and tubulointerstitial fibrosis. […] The role and regulation of Notch pathway genes were also examined in other models of tubulointerstitial fibrosis. […] To examine the role of Notch activation in this model, animals were injected with GSI XX (DBZ). DBZ reduced the expression of Notch target gene HeyL and reduced expression of pro-fibrotic genes collagen, fibronectin and alpha smooth muscle action.

Assay [6] deals with Balb/c mice. As to the kind of experiment: Adriamycin (doxorubicin) induced nephrotic syndrome of mice. To be noted: male Balb/c mice, 12 days following 12 mg/kg doxorubicin (adriamycin); doxorubicin only 2659 μg/mg creatinine. The assay is classed as in vivo, mouse. How it is done:
Adriamycin-induced nephrotic syndrome was induced in 8 weeks old male Balb/c mice (n=10/per each groups) via intravenous injection (to the tail vein) of 12 mg/kg adriamycin. Animals were sacrificed 12 days following the injection. All animal studies were approved by the Animal Care Committee at the Albert Einstein College of Medicine (AECOM). Animals were maintained under specific pathogen free conditions. Phenotypic analysis. Albuminuria was determined using Mouse or Rat Albumin specific ELISA kits (Exocell and Bethyl Laboratories) and urine creatinine was determined using Creatinine companion (Exocell), following manufacturer's protocol.

The test system of assay [7] is Smad3 and Akt phosphorylation. As to the kind of experiment: TGFβ induced Smad3 and Akt phosphorylation in podocytes, Western blot. It is filed as cell-based, mouse. To be noted: 5 ng/ml TGFβ; GSI XX 1 μM. How it is done:
as §1, §2

The subject of assay [8] is p53. As to the kind of experiment: TGFβ induced phosphorylated p53 levels in podocytes, Western blot. The assay is classed as cell-based, mouse. To be noted: after 4 hrs of incubation with TGFβ. How it is done:
as §1, §2

In assay [9] the test system is FA-treated mice. The assay can be described thus: Murine folic acid (FA)-induced nephrotoxicity model. It is filed as in vivo, mouse. To be noted: FA mice treated for 1 week with DBZ. How it is done:
Experiments were conducted using the murine folic acid (FA)-induced nephrotoxicity model, which is characterized by acute tubular injury followed by both tubular regeneration and chronic changes such as patchy interstitial fibrosis. Strong upregulation was found for mRNA levels of Notch 1-4, the ligands Jagged 1 and 2, delta like-1 and -4, and the downstream target genes Hes1, Hey1, and HeyL in total kidney homogenates 1 day after FA injection, which remained increased up to 1 week.
To further investigate the role of Notch in FA-induced renal injury, mice were treated for 1 week with the gamma-secretase inhibitor (GSI) dibenzazepine (DBZ) that blocks activation of the Notch pathway by interfering with Notch cleavage. […] In control kidneys, large numbers of interstitial fibroblasts and significant tubulointerstitial fibrosis were observed indicating a misdirected renal regeneration.

Assay [10] relates to PAN treated rats. As to the kind of experiment: PAN induced nephrotic syndrome in rats. The assay is classed as in vivo, rat. How it is done:
Male Sprague Dawley rats (75-100 gr˜4 weeks old) were purchased from Charles Rivers. Animals were injected with puromycin aminonucleoside 20 mg/kg ip ×1. BDZ (dissolved in Methocell, Tween-80) was administered ip 500 μg/100 gr rat once a day. Animals were sacrificed on day 8 after PAN administration.
Phenotypic analysis. Albuminuria was determined using Mouse or Rat Albumin specific ELISA kits (Exocell and Bethyl Laboratories) and urine creatinine was determined using Creatinine companion (Exocell), following manufacturer's protocol.
Histologic analysis. Histologic analysis was performed on formalin fixed paraffin embedded kidney sections that was stained with Periodic-Acid-Schiff (PAS) or Gomori Trichrome. Slides were examined and pictures were taken with Nikon Eclipse TE300 microscope and SPOT Diagnostic CCD camera. Transmission electron microscopy was performed in the Analytical Imaging Facility at AECOM on glutaraldehyde fixed, epoxy embedded kidney samples stained with uranyl acetate and lead citrate. Samples were evaluated using JEOL 1200EX, electron microscope (AECOM, Analytical Imaging Facility).
Immunohistochemistry. Immunohistochemistry was performed on formalin fixed paraffin embedded kidney sections using the following primary antibodies Val^1744ICN1 (Abcam), ICN2 (Abeam). Staining was visualized using peroxidase conjugated anti mouse of anti rabbit Vectastain Elite kit and DAB (Vector Labs). Terminal d-UTP labeling (TUNEL) staining was performed using TUNEL kit (Chemicon) following manufacturer's instructions. For fluorescent labeling, 5 μm frozen sections were fixed in ice cold acetone, blocked with 10% horse serum and incubated with primary antibodies, WT-1 (Santa Cruz), nephrin (kind gift of Dr Lawrence Holzman, University of Michigan), synaptopodin and podocin (Sigma-Aldrich), p21 (Santa Cruz), and developed using FITC conjugated anti-mouse secondary antibody or Cy3 conjugated anti-rabbit antibodies (Jackson laboratory) and mounted with Fluoromount).
Glomerular isolation. Glomerular isolation was performed using serial sieving of 120, 100 and 71 μm diameter.
QRT-PCR. RNA was prepared from isolated glomeruli or from podocytes using RNAeasy Mini kit (Qiagen, Valencia). The quality was analyzed on agarose gels and the quantity was measured on NanoDrop. 1 ug RNA was reverse transcribed using cDNA Archival Kit (Applied Biosystems). QRT-PCR analysis was performed using ABI 7900HT-Sequence Detection System. SYBR Green Master Mix and 3-step standard cycling conditions and sequence specific primers for QRT-PCR analysis were used. Melting curve was examined to verify that a single product was amplified. For quantitative analysis all samples were normalized to ubiquitin C and HPGRT gene expression using the ΔΔCT value method.
It was examined whether the Notch pathway inhibition (with the use of a gamma-secretase inhibitor) could be used as a potential strategy for the treatment of albuminuric glomerular disease^31. Rats we treated with DBZ 500 μg/100 gr ip. daily stating 12 hrs prior to PAN injection. Animals were sacrificed on day 8 as the PAN treated rats appeared moribund and most of them had severe nephrotic syndrome (ascites and edema). DBZ treatment normalized the Notch pathway gene expression increase of PAN treated rats (FIG. 1e, FIG. 12a). […] Similarly, expression of p53 and p21 was lower in BDZ treated rats compared to PAN only injected animals (FIG. 110.

Where [11] appears, read: PAN rats, DBZ 500 μg/100 gr ip daily.

On to `CC(C)C[C@H](NC(=O)[C@H](Cc1ccccc1)C[C@@H](O)[C@H](Cc1ccccc1)NC(=O)OC(C)(C)C)C(=O)N[C@@H](Cc1ccccc1)C(N)=O` [GSI X, {1S-Benzyl-4R-[1-(1S-carbamoyl-2-phenethylcarbamoyl)-1S-3-methylbutylcarbamoyl]-2R-hydroxy-5-phenylpentyl}carbamic Acid tert-butyl Ester], for which the “TGFβ induced increase of ICN1 levels” value in assay [1] is given as “fully sensitive”.

In the case of `Cc1ccc(C(=O)Cn2c3c(sc2=N)CCCC3)cc1` [pifithrin alpha], the “TGFβ induced increase in p21 protein expression” value in assay [2] was “blocked”. Besides, the “TGFβ induced increase in annexinV positive cell number” value in assay [3] is “prevented”. In assay [4], the “ICN1 induced increase in annexinV positive cell number” value (shortened to “ICN1 induced increase”) is “decreased”.

Consider `COc1cccc(-c2cc(=O)c3ccccc3o2)c1N` [PD98059], for which the “TGFβ induced increase of ICN1 levels” value in assay [1] is given as “not sensitive”.

Take Z-vad: the “ICN1 induced apoptosis (AnnexinV/GFP positive cells)” value in assay [4] (podocytes with tamoxifen-induced ICN1, pretreatment with Z-vad (10 μM) or Z-LEHD (10 μM)) is reported as “prevented”.

On to `C[C@H](NC(=O)Cc1cc(F)cc(F)c1)C(=O)N[C@H](C(=O)OC(C)(C)C)c1ccccc1` [GSI IX, N—[N-(3,5-Difluorophenacetyl-L-alanyl)]-S-phenylglycine t-Butyl Ester], for which the “TGFβ induced increase of ICN1 levels” value in assay [1] is “fully sensitive”.

Regarding `C[S+]([O-])c1ccc(-c2nc(-c3ccncc3)c(-c3ccc(F)cc3)[nH]2)cc1` (stereo not drawn) [SB203580], in [1], the “TGFβ induced increase of ICN1 levels” value is given as “not sensitive”. Also, in assay [4], the “ICN1 induced increase” value was “did not alter”.

As to `C[C@H](NC(=O)Cc1cc(F)cc(F)c1)C(=O)N[C@@H]1C(=O)N(C)c2ccccc2-c2ccccc21` [DBZ, (S,S)-2-[2-(3,5-Difluorophenyl)acetylamino]-N-(5-methyl-6-oxo-6,7-dihydro-5H-dibenzo[b,d]azepin-7-yl)propionamide], in assay [1], the “TGFβ induced increase of ICN1 levels” value is on record as “fully sensitive”. Besides, in [5], the “expression of Notch target gene HeyL” value is “reduced”; the “expression of pro-fibrotic genes collagen, fibronectin and alpha smooth muscle action” value is “reduced”; the “tubulointerstitial fibrosis (evaluated on PAS staining)” value was “reduced”. Further, the albuminuria in assay [6] was 800 μg/mg creatinine. Also, the “TGFβ induced Smad3 and Akt phosphorylation” value in assay [7] was “did not interfere”. Also, the “TGFβ induced increase of phosphorylated p53 levels” value in assay [8] is recorded as “fully sensitive”. Further, in assay [9], the “FA-induced upregulation of fibrotic remodeling genes (TGF-β, fibronectin, MMP-2 and 9)” value is “greatly reduced”; the “increase in serum creatinine” value is listed as “did not affect”; the “rate of tubular apoptosis” value was “did not affect”; the “rise in HeyL expression” value was “completely blunted”. Further, the tubular damage scores result in assay [9] was “did not affect”. In assay [3], the “TGFβ induced increase in annexinV positive cell number” value is “prevented”. Further, the “Notch pathway gene expression increase of PAN treated rats” value in assay [10] (DBZ 500 μg/100 gr ip daily from 12 hrs prior to PAN, QRT-PCR) is given as “normalized”. Moreover, the “albuminuria (albumin/creatinine ratio)” value in [10] (PAN rats, 500 μg/100 gr ip daily, compared to PAN only, after 6 days) is “significantly less”. Moreover, in assay [10] (setting [11]), the “foot process effacement (EM analysis)” value is recorded as “almost fully abrogated” and the “podocyte apoptosis (TUNEL staining)” value is “fully prevented”. Moreover, in assay [10] (PAN rats, DBZ 500 μg/100 gr ip daily, day 8), the “decrease in nephrin and podocin levels (mRNA and protein)” value is given as “protected”. Besides, the “expression of p53 and p21” value in assay [10] (PAN rats, whole kidney lysates QRT-PCR, compared to PAN only) is “lower”. Moreover, the “ICN1 induced increase” value in assay [4] (listed as GSI XX) is “did not alter”. Further, the “ICN1 induced increase” value in assay [4] (listed as GSIXX) was “did not affect”.
